Tests used:
[1] = test system: cultured human mast cells (CHMC); test: CHMC high cell density IgE activation: TNFalpha; assay type: cell-based; conditions: read-out: CHMC high density TNF-alpha
Method: (§1) After sensitizing, cells are counted, pelleted (1000 rpm, 5-10 minutes), and resuspended at 1-2 ×10^6 cells/ml in MT buffer. Add 100 ul of cell suspension to each well and 100 ul of compound dilutions. The final vehicle concentration is 0.5% DMSO. Incubate at 37° C. (5% CO2) for 1 hour. After 1 hour of compound treatment, stimulate cells with 6× anti-IgE. Mix wells with the cells and allow plates to incubate at 37° C. (5% CO2) for one hour. After 1 hour incubation, pellet cells (10 minutes, 1000 RPM) and collect 200 ul per well of the supernatant, being careful not to disturb pellet. Place the supernatant plate on ice. During the 7-hour step (see next) perform tryptase assay on supernatant that had been diluted 1:500. Resuspend cell pellet in 240 ul of CM media containing 0.5% DMSO and corresponding concentration of compound. Incubate CHMC cells for 7 hours at 37° C. (5% CO2). After incubation, pellet cells (1000 RPM, 10 minutes) and collect 225 ul per well and place in −80° C. until ready to perform ELISAS. ELISAS are performed on appropriately diluted samples (determined empirically for each donor cell population so that the sample measurement falls within the standard curve) following the supplier's instructions.

[2] = test system: cultured human mast cells (CHMC); test: CHMC high cell density IgE activation: tryptase; assay type: cell-based
Method: as §1

[3] = test system: cultured human mast cells (CHMC); test: CHMC high cell density IgE activation: hexos; assay type: cell-based
Method: as §1
(§2) Add 50 uL of BMMC cell supernatant (see above) to the hexoseaminidase substrate, place at 37° C. for 30 minutes and read the plate at 5, 10, 15, and 30 minutes on a spectrophotometer.

[4] = test system: cultured human mast cells (CHMC); test: CHMC low cell density IgE activation: tryptase assay; assay type: cell-based
Outline: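 Supernatant tryptase activity, assayed with substrate for 30 min at room temperature, served as the degranulation measure. Mast cells (1000-1500 per well depending on donor) sat 1 hr at 37° C in MT before a 30 min anti-IgE challenge at 37° C.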

[5] = test system: cultured human mast cells (CHMC); test: CHMC high cell density IgE activation: histamine; assay type: cell-based
Method: as §1

[6] = test system: cultured human mast cells (CHMC); test: CHMC low cell density ionomycin activation: tryptase assay; assay type: cell-based
[7] = test system: Human Jurkat T-cells (clone N); test: Jurkat T-cell activation (anti-TCR, CD69 upregulation); assay type: cell-based
Outline: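 Readout is CD69 upregulation by flow cytometry (anti-CD69-APC, 20 min at 4 °C) after 20 h anti-TCR (C305, 500 ng/ml) stimulation at 37 °C.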

[8] = test system: cultured human mast cells (CHMC); test: CHMC high cell density IgE activation: LTC4; assay type: cell-based
Method: as §1

[9] = test system: cultured human mast cells (CHMC); test: CHMC high cell density IgE activation: IL-13; assay type: cell-based
Method: as §1

[10] = test system: cultured human mast cells (CHMC); test: CHMC low cell density IgE activation: LTC4 assay; assay type: cell-based; conditions: anti-IgE activation, LTC4 release
Method: Pellet CHMC cells (980 rpm, 10 min) and resuspend in pre-warmed MT. Add 65 ul of cells to each 96-well plate. Depending on the degranulation activity for each particular CHMC donor, load 1000-1500 cells/well. Mix four times followed by a 1 hr incubation at 37° C. […] Stimulate cells by adding 25 ul of 6× anti-IgE solution to the appropriate plates. Add 25 ul MT to un-stimulated control wells. Mix twice following addition of the anti-IgE. Incubate at 37° C. for 30 minutes. […] Spin plates at 1000 rpm for 10 min to pellet cells. Transfer 25 ul of supernatant to a 96-well black bottom plate and add 100 ul of freshly diluted tryptase substrate solution to each well. Incubate plates at room temperature for 30 min.
Leukotriene C4 (LTC4) is also quantified using an ELISA kit on appropriately diluted supernatant samples (determined empirically for each donor cell population so that the sample measurement falls within the standard curve) following the supplier's instructions.

Primary T-cells = test: Primary T-cell cytokine production (αCD3/αCD28): IL-2; assay type: cell-based, human; conditions: read-out: 1° T-Cell IL2 IC50
Method: 2E8-4E8 PBMC or proliferating T cells grown in rIL-2 from healthy human donors were suspended in PBS were spun down (1500 rpm, 8-10 minutes) and resuspended in 100 ml RPMI Complete media (1% Pen-Strep, 1% L-Glutamine, 10 mM HEPES). The cells were plated in T175 flasks (37° C., 5% CO2) and monocytes were allowed to adhere for 2-3 hours. After monocyte attachment, non-adherent cells were harvested, counted by hemocytometer, washed several times with PBS then resuspended in Yssels Complete Media (Modified IMDM Media with 1% Human AB Serum, 1% Pen-Strep, 1% L-Glutamine, 10 mM HEPES) at […]. 90 uL of the cell dilution were then added to compounds diluted to 2× in Yssel's media and incubated for 30 minutes at 37° C. (5% CO2). After this preincubation step the compound/cell mixture was transferred to stimulation plates, as described below.
Stimulation plates were prepared by coating 96 well plates with 5 μg/ml αCD3 (BD PharMingen, Catalog #555336)+10 μg/ml αCD28 (Beckman Coulter, Catalog #IM1376) in PBS (no Ca^2+/Mg^2+) at 37° C. (5% CO2) for at 3-5 hours. After incubation with the stimulation antibodies, the cocktail was removed and the plates washed 3 times with PBS prior to addition of the primary T cell/compound mixture.
The compound/cell mixture was transferred to the stimulation plates and incubated for 18 hr at 37° C. (5% CO2). After the cell stimulation, ˜150 μl supernatant were transferred from each well into 96-well filter plates (Coming PVDF Filter Plates) spun down (2000 rpm, 2-3 minutes) and either used immediately for ELISA or LUMINEX measurements or frozen down at −80° C. for future use.
IL-2 ELISAs were performed using the Quantikine Human IL-2 ELISA kit (R&D Systems, Catalog # D2050) as described by the manufacturer and absorption was measured on a spectrophotometer at 450 nm wavelength. Blank values were substracted and absorbances were converted to pg/mL based on the standard curve.
Luminex immunoassay multiplexing for TNF, IL-2, GMSCF, IL-4 and IFNg was performed essentially as described by the manufacturer (Upstate Biotechnology). Essentially 50 uL of sample was diluted into 50 uL assay diluent and 50 uL incubation buffer, then incubated with 100 uL of the diluted detection antibody for 1 hr at RT in the dark. The filter plate was washed 2× in Wash Buffer, then incubated with 100 uL of the diluted secondary reagent (SAV-RPE) for 30 min at RT in the dark. Finally the plates were washed 3 times and bead identification and RPE fluorescent measured by the Luminex instrument.
Varied concentrations of compound were compared to solvent only to determine the inhibition of T-cell activation IC50 of each compound.

[11] = test system: bone marrow derived mast cells (BMMC); test: BMMC high cell density IgE activation: TNFalpha; assay type: cell-based, mouse; conditions: high cell density; read-out: BMMC anti-IgE TNF-alpha
Method: (§3) After sensitizing, cells are counted, pelleted (1000 rpm, 5-10 minutes), and resuspended at 1-3×10^6 cells/ml in MT buffer. Add 100 ul of cell suspension to each well and 100 ul of compound dilutions. The final vehicle concentration is 0.5% DMSO. Incubate at 37° C. (5% CO2) for 1 hour. After 1 hour of compound treatment, stimulate cells with 6× stimulus (60 ng/ml DNP-BSA). Mix wells with the cells and allow plates to incubate at 37° C. (5% CO2) for one hour. After 1 hour incubation, pellet cells (10 minutes, 1000 RPM) and collect 200 ul per well of the supernatant, being careful not to disturb pellet, and transfer to a clean tube or 96-well plate. Place the supernatant plate on ice. During the 4-5 hour step (see next) perform the hexosiminidase assay. Resuspend cell pellet in 240 ul WEI-conditioned media containing 0.5% DMSO and corresponding concentration of compound. Incubate BMMC cells for 4-5 hours at 37° C. (5% CO2). After incubation, pellet cells (1000 RPM, 10 minutes) and collect 225 ul per well and place in −80° C. until ready to perform ELISAS. ELISAS are performed on appropriately diluted samples (determined empirically for each donor cell population so that the sample measurement falls within the standard curve) following the supplier's instructions.

[12] = test system: bone marrow derived mast cells (BMMC); test: BMMC high cell density IgE activation: IL-6; assay type: cell-based, mouse; conditions: high cell density; read-out: BMMC anti-IgE IL-6
Method: as §3

Syk kinase = molecular target: T1, Syk kinase (Homo sapiens, UniProt P43405); test: Syk kinase biochemical fluorescence polarization assay; conditions: isolated Syk kinase, fluorescence polarization, 4 uM ATP
T1 construct: purchased Upstate, Lake Placid NY

[13] = test system: bone marrow derived mast cells (BMMC); test: BMMC high cell density IgE activation: hexosaminidase; assay type: cell-based, mouse; conditions: high cell density; read-out: BMMC anti-IgE Hexos.
Method: as §3, §2

[14] = Low Density CHMC, anti-IgE activation, tryptase release, read-out: CHMC anti-IgE Tryptase IC50
[15] = Low Density CHMC, ionomycin activation, tryptase release, read-out: CHMC Ionomycin Tryptase IC50
[16] = low cell density, read-out: CHMC Ionomycin Tryptase

| Compound | IC50 [1] | IC50 [2] | IC50 [3] | IC50 [4, 14] | IC50 [5] | IC50 [6, 15] | IC50 [7] | IC50 [8] | IC50 [9] | IC50 [10] | IC50 (Primary T-cells) | IC50 ([4]; low cell density, read-out: CHMC anti-IgE Tryptase) | IC50 [11] | IC50 [12] | IC50 (Syk kinase) | IC50 [6, 16] | IC50 [13] |
| --- | --- | --- | --- | --- | --- | --- | --- | --- | --- | --- | --- | --- | --- | --- | --- | --- | --- |
| COC(=O)c1cc2cc(Nc3ncc(F)c(Nc4ccc(OC(C)C)cc4)n3)ccc2o1 [Compound R926704] | > 10000 nM | > 10000 nM | > 2000 nM | 564 nM | > 10000 nM | > 10000 nM | 9270 nM | > 10000 nM |  |  |  |  |  |  |  |  |  |
| COC(=O)c1cc2cc(Nc3ncc(F)c(Nc4cccc(O)c4)n3)ccc2o1 [Compound R926614] | > 10000 nM | > 10000 nM | > 10000 nM | 228 nM |  | > 10000 nM | 6540 nM |  | 6440 nM |  |  |  |  |  |  |  |  |
| CNC(=O)c1cc2cc(Nc3ncc(F)c(Nc4ccc5c(c4)OCCO5)n3)ccc2o1 [Compound R926496] | 622 nM | 533 nM | 429 nM | 571 nM | 809 nM | > 10000 nM | 4390 nM | 414 nM |  |  |  |  |  |  |  |  |  |
| CC(C)Oc1ccc(Nc2nc(Nc3ccc4oc(CO)cc4c3)ncc2F)cc1 [Compound R926705] | > 10000 nM | 1260 nM | 1010 nM | 263 nM | 641 nM | > 10000 nM | 2650 nM | 494 nM |  | 533 nM |  |  |  |  |  |  |  |
| CNC(=O)COc1cccc(Nc2ncc(F)c(Nc3ccc4cc[nH]c4c3)n2)c1 [Compound R926745] |  |  |  |  |  |  | 1480 nM |  |  |  | 1500 nM |  |  |  |  |  |  |
| CNC(=O)c1cc2cc(Nc3ncc(F)c(Nc4ccc(C(C)(C)C)cc4)n3)ccc2o1 [Compound R926494] | > 10000 nM | > 2000 nM | 640 nM | 313 nM | > 10000 nM | > 10000 nM | 12500 nM | 326 nM |  | 78 nM |  |  |  |  |  |  |  |
| Oc1cccc(Nc2nc(Nc3ccc(OCc4nc(-c5ccccc5)no4)cc3)ncc2F)c1 [Compound R935134] |  |  |  |  |  |  | > 10000 nM |  |  |  | 36100 nM |  |  |  |  |  |  |
| COc1c(C)cc(Nc2ncc(F)c(Nc3ccc4c(c3)NC(=O)C(C)(C)O4)n2)cc1Cl [Compound R940361] |  |  |  |  |  |  | 390 nM |  |  |  |  | 47 nM | 70 nM | 100 nM | 69 nM | 2200 nM | 60 nM |
| Cn1ncc2ccc(Nc3ncc(F)c(Nc4ccc(Cl)c(Cl)c4)n3)cc21 [Compound R935393] |  |  |  |  |  |  | > 10000 nM |  |  |  |  |  | 1470 nM | 520 nM | 450 nM | > 10000 nM | 2440 nM |
| COC(=O)C1Cc2cc(Nc3ncc(F)c(Nc4ccc(OC(C)C)cc4)n3)ccc2O1 (stereo not drawn) [Compound R926706] | > 10000 nM | > 10000 nM | > 2000 nM | 70 nM | > 10000 nM | 2410 nM | > 10000 nM | 1490 nM |  | 78 nM |  |  |  |  |  |  |  |
| Cc1noc(COc2ccc(Nc3nc(Nc4ccc(OC(C)C)cc4)ncc3F)cc2)n1 [Compound R935144] |  |  |  |  |  |  | > 10000 nM |  |  |  | 13300 nM |  |  |  |  |  |  |

Reference: US8158621B2, “Methods of treating or preventing autoimmune diseases with 2,4-pyrimidinediamine compounds” (Rigel Pharmaceuticals, Inc., priority 2002, dated 2012)
